Test results reported in patent publication US11319452B2, “Vapor source using solutions of precursors in tertiary amines” (President and Fellows of Harvard College, priority 2013, dated 2022).

How the values were obtained:
human = conditions: cited from earlier work
chromosomes = conditions: reported in vitro; cited from earlier work
marine organisms = conditions: cited from earlier work
[1] = room temperature; cited from earlier work
[2] = Evaporation rate by isothermal thermogravimetric analysis (TGA); assay type: physicochemical
Source text: DLE is a non-equilibrium evaporation process, because the vapor is swept away from the surface of the liquid before it can reach the equilibrium vapor pressure. The amount of liquid vaporized is thus determined by the evaporation rate. The rate of evaporation of a material can be measured using isothermal thermogravimetric analysis (TGA). In this method, a small sample (typically about 50 milligrams) of a material is held in the pan of a microbalance while a flow of a gas, such as nitrogen, passes over the surface of the material. As vapor leaves the surface of the material, its mass decreases and the microbalance measures the mass of the remaining un-evaporated material. […] The furnace temperature was increased from 110° C. to 115° C. during the time from 160 minutes to 162 minutes, at which time the temperature had stabilized at 115° C. The many mass values measured from 162 minutes until 175 minutes form a nearly continuous thick line in FIG. 1. […]
One class of precursors widely used for ALD and CVD are metal amidinates. One example is (N,N′-di-sec-butylacetamidinato)copper(I) dimer, whose evaporation rate was also measured by the same isothermal TGA method. […]

[3] = Solubility of amidinate precursors in dry, oxygen-free trialkylamine solvent; assay type: physicochemical; conditions: for solubility: in dry
Protocol: Another important criterion for solvents is that they dissolve a sufficient amount of precursor. Useful concentrations of the solutions are typically larger than 10 weight per cent, larger than 20 weight percent in more preferred embodiments, and larger than 40 weight percent in the most preferred embodiments.
Purification to remove oxygen, moisture and di-n-hexylamine was carried out as follows: 95 g of tri-n-hexylamine was mixed with 1 g of Na and heated to 100° C. under a N2 atmosphere for 3 hours. Then the purified tri-n-hexylamine was distilled out and stored in a glove box under a purified N2 atmosphere. A nickel precursor, bis(N,N′-di-tert-butylacetamidinato)nickel(II),
[drawing 6] was dissolved in the purified dry, oxygen-free tri-n-hexylamine.

[4] = in tri-n-hexylamine and in tri-n-heptylamine

**Q.** Which “effect of repeated human exposure” value (human) does the source give for `Cc1cccc2ccccc12` [1-methylnaphthalene] here?
**A.** causes sensitization

**Q.** What about the “chromosome damage in vitro” value (chromosomes) of the same compound?
**A.** cause damage to chromosomes

**Q.** And the “toxicity to marine organisms” value (marine organisms)?
**A.** highly toxic

**Q.** For `CCCCCCCCCCCC` [Dodecane, n-dodecane], which vapor pressure [1] is on record?
**A.** around 120 mTorr

**Q.** Which evaporation rate ([2]; 115° C., flow of nitrogen gas at one atmosphere) does the source give for `CCCCCCN(CCCCCC)CCCCCC` [tri-n-hexylamine] here?
**A.** 0.346 mg min^−1 cm^−2

**Q.** For “bis(N,N′-di-sec-butylacetamidinato)copper(I) dimer”, which solubility ([3]; oxygen-free tri-n-hexylamine and in tri-n-heptylamine) is on record?
**A.** about 30 weight percent

**Q.** What about the evaporation rate ([2]; 160° C.=433 K, read from FIG. 2, neat precursor into 1 atmosphere nitrogen) of the same compound?
**A.** about 0.8 mg cm^−2 min^−1

**Q.** With “bis(N,N′-di-tert-butylacetamidinato)manganese(II)” as the compound, how does the solubility ([3]; oxygen-free tri-n-hexylamine) read?
**A.** 42 weight percent

**Q.** For “bis(N,N′-di-tert-butylacetamidinato)nickel(II)”, which solubility ([3]; oxygen-free tri-n-hexylamine) is on record?
**A.** 22 weight percent

**Q.** Which “solubility (in words)” value [3, 4] does the source give for “bis(N,N′-di-tert-butylacetamidinato)ruthenium(II)tricarbonyl” here?
**A.** moderate

**Q.** Which “solubility (in words)” value ([3]; in tri-n-hexylamine) does the source give for “bis(N,N′-diisopropylacetamidinato)cobalt(II)” here?
**A.** high

**Q.** For “bis(N,N′-diisopropylacetamidinato)tin(II)”, which “solubility (in words)” value ([3]; in tri-n-hexylamine) is on record?
**A.** high

**Q.** Which solubility ([3]; oxygen-free tri-n-hexylamine) does the source give for “bis(N,N′-diisopropylpentamidinato)manganese(II)” here?
**A.** 8 weight percent

**Q.** Which “solubility (in words)” value [3, 4] does the source give for “tris(N,N′-diisopropylacetamidinato)yttrium(III)” here?
**A.** high

**Q.** For “tris(N,N′-diisopropylformamidinato)lanthanum(III)”, which “solubility (in words)” value [3, 4] is on record?
**A.** high
